The text below walks through data of patent publication US11149019B2, “Phenylpyridine derivative and pharmaceutical composition comprising the same” (Daewoong Pharmaceutical Co., Ltd., priority 2017, dated 2021).

One experiment concerns the target T1, ITK (Homo sapiens, UniProt Q08881).
T1 construct: purchased Promega Corporation
T1 sequence (Q08881 1-620): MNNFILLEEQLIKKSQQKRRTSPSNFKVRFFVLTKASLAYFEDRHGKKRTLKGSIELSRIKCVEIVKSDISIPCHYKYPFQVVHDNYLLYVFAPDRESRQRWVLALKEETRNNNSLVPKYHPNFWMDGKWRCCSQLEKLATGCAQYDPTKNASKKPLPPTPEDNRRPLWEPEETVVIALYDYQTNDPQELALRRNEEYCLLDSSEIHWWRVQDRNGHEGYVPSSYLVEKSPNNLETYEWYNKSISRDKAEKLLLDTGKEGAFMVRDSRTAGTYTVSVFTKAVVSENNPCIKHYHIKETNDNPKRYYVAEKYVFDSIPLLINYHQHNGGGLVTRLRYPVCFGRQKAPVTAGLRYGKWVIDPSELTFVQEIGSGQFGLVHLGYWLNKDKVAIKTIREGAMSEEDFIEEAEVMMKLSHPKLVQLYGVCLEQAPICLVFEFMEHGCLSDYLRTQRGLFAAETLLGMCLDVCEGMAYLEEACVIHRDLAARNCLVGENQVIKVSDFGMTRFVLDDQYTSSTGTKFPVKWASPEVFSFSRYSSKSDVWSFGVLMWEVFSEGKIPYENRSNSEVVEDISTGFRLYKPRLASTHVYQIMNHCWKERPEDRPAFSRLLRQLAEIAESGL
In words: ADP-Glo + ITK Kinase enzyme system kit, inhibitory activity against ITK. Type of experiment: biochemical. Particulars: ITK enzyme 0.4 ng/ul, ATP final concentration of 25 ul, 30° C. for 1 hour, luminescence, duplicate. Here is the method: (§1) Inhibitory activities against BTK and ITK were measured for the compounds prepared in the above Examples as follows.
The inhibitory activity against ITK was evaluated using ‘ADP-Glo™+ITK Kinase enzyme system’ kit (Promega Corporation). In a white 96-well plate, 10 ul of ITK enzyme prepared so as to have a final concentration of 0.4 ng/ul was mixed with 5 ul of compounds having a final concentration of 1 uM in the case of evaluating a single concentration of compound and a concentration of 1000, 300, 100, 30, 10, 3, 1, 0.3, 0.1 and 0.03 nM in the case of IC50 evaluation, and then reacted at room temperature for 15 minutes. To the plate on which reactions were completed, 5 ul of substrate and 5 ul of ATP prepared so as to have a final concentration of […] added and then allowed to react at 30° C. for 1 hour. All wells of the plate were treated with 25 ul of ADP-Glo™ reagent and then allowed to react at 30° C. for 40 minutes. After that, all wells were treated with 50 ul of kinase detection buffer, and then allowed to react at 30° C. for 30 minutes under light shielding conditions. For the plate on which all reactions were completed, luminescence was measured and the results were calculated. Evaluation was carried out in duplicate, and negative control and positive control were calculated depending on whether or not the enzyme was added without treatment of the compound. The IC50 was calculated based on the calculated values.
In general terms: In ADP-Glo the light output rises with the ADP produced.

The target of another experiment is T2, BTK (Homo sapiens, UniProt Q06187).
T2 construct: purchased Promega Corporation
T2 sequence (Q06187 whole entry): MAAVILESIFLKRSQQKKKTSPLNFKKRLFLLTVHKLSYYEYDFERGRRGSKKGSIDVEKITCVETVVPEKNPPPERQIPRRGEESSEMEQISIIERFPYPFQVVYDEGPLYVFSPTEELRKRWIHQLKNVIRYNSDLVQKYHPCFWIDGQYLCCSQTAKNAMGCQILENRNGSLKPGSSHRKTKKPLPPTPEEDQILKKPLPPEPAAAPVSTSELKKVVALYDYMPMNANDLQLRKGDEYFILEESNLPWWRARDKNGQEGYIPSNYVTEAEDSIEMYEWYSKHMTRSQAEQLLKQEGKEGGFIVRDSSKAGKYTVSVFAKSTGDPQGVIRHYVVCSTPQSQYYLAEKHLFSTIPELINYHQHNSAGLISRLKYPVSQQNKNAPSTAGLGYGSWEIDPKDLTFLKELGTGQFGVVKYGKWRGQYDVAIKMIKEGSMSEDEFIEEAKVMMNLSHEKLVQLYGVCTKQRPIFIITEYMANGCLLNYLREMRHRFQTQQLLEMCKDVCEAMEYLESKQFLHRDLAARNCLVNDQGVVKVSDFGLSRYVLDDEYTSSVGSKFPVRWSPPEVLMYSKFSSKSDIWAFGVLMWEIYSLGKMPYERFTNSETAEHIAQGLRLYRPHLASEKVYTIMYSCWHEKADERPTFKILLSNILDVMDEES
As to the kind of experiment: ADP-Glo + BTK Kinase enzyme system kit, inhibitory activity against BTK. Type of experiment: biochemical. Particulars: BTK enzyme 1 ng/ul, ATP 10 μM, 30° C. for 1 hour, luminescence, duplicate. As to the method: as §1
The inhibitory activities against BTK were evaluated using ‘ADP-Glo™+BTK Kinase enzyme system’ kit (Promega Corporation). In a white 96-well plate, 10 ul of BTK enzyme prepared so as to have a final concentration of 1 ng/ul was mixed with 5 μl of compounds having a final concentration of […] the case of evaluating a single concentration of compound and a concentration of 1000, 300, 100, 30, 10, 3, 1, 0.3, 0.1 and 0.03 nM in the case of IC50 evaluation, and then reacted at room temperature for 15 minutes. 5 ul of substrate and 5 ul of ATP prepared so as to have a final concentration of 10 μM were added to the plate on which reactions were completed, and then allowed to react at 30° C. for 1 hour. All wells of the plate were treated with 25 ul of ADP-Glo™ reagent and allowed to react at 30° C. for 40 minutes. After that, all wells were treated with 50 ul of kinase detection buffer, and then reacted at 30° C. for 30 minutes under light shielding conditions. For the plate on which all reactions were completed, luminescence was measured and the results were calculated. Evaluation was carried out in duplicate, and negative control and positive control were calculated depending on whether or not the enzyme was added without treatment of the compound. The IC50 was calculated based on the calculated values.

SMILES strings stand for the structures.

One may read the IC50 as the concentration that gives 50% inhibition. For the compound `C=CC(=O)Nc1cccc(-c2cc(CN3CCN(CCOC)CC3)cc(Nc3ncc(C)s3)n2)c1` [Compound 49, N-(3-(4-((4-(2-methoxyethyl)piperazin-1-yl)methyl)-6-(5-methylthiazol-2-ylamino)pyridin-2-yl)phenyl)acrylamide], the IC50 on ITK came to 3.1 nM; on BTK it was 1.3 nM.

`C=CC(=O)Nc1cccc(-c2cc(CN3CCN(CC(F)(F)F)CC3)cc(Nc3ncc(C)s3)n2)c1` [Compound 50, N (3(6(5methylthiazol-2-ylamino)-4-((4-(2,2,2-trifluoroethyl)piperazin-1-yl)methyl)pyridin-2-yl)phenyl)acrylamide]: the IC50 is 5 nM on ITK and 2.2 nM on BTK.

As to `C=CC(=O)Nc1cccc(-c2cc(CN3CCOCC3)cc(Nc3ncc(C(F)(F)F)s3)n2)c1` [Compound 51], the IC50 came to 2.2 nM on ITK and 5.2 nM on BTK.

For the compound `C=CC(=O)Nc1ccc(F)c(-c2cc(CN3CCOCC3)cc(Nc3ncc(C)s3)n2)c1` [Compound 52], the IC50 on ITK amounted to 2.2 nM; on BTK it was 1.9 nM.

Take `C=CC(=O)Nc1cccc(-c2cc(CN3CCN(CC)CC3)cc(Nc3ncc(C)s3)n2)c1` [Compound 53, N-(3-(4-((4-ethylpiperazin-1-yl)methyl)-6-(5-methylthiazol-2-yl)amino)pyridin-2-yl)phenylacrylamide]: the IC50 was found to be 3.8 nM at ITK and 2.3 nM at BTK.

On to `C=CC(=O)Nc1cccc(-c2cc(CN3CCN(C(C)C)CC3)cc(Nc3ncc(C)s3)n2)c1` [Compound 54], for which the results for the IC50 on ITK and at BTK were 2.9 nM and 1.9 nM, respectively.

Take `C=CC(=O)Nc1cccc(-c2cc(CN3CCCN(C)CC3)cc(Nc3ncc(C)s3)n2)c1` [Compound 55, N-(3-(4-((4-methyl-1,4-diazepan-1-yl)methyl)-6-(5-methylthiazol-2-ylamino)pyridin-2-yl)phenyl)acrylamide]: the half-maximal inhibitory concentration (IC50) came out at 13.4 nM at ITK and 10.6 nM at BTK.

As for `C=CC(=O)Nc1cc(-c2cc(CN3CCOCC3)cc(Nc3ncc(C)s3)n2)ccc1F` [Compound 56, N-(2-fluoro-5-(6-((5-methylthiazol-2-yl)amino)-4-(morpholinomethyl)pyridin-2-yl)phenyl)acrylamide], the 50% inhibitory concentration (IC50) on ITK amounted to 4.2 nM; at BTK it was 1.8 nM.

Consider `C=CC(=O)Nc1cc(F)cc(-c2cc(CN3CCOCC3)cc(Nc3ncc(C)s3)n2)c1` [Compound 57, N-(3-fluoro-5-(6-((5-methylthiazol-2-yl)amino)-4-(morpholinomethyl)pyridin-2-yl)phenyl)acrylamide], for which the values for the IC50 at ITK and at BTK were 23.2 nM and above 6.3 nM, respectively.

`C=CC(=O)Nc1cc(-c2cc(CN3CCOCC3)cc(Nc3ncc(C)s3)n2)ccc1C` [Compound 58]: the figures for the IC50 at ITK and on BTK were 14.1 nM and 6.4 nM, respectively.

On to `C=CC(=O)Nc1ccc(C)c(-c2cc(CN3CCOCC3)cc(Nc3ncc(C)s3)n2)c1` [Compound 59, N-(4-methyl-3-(6-((5-methylthiazol-2-yl)amino)-4-(morpholinomethyl)pyridin-2-yl)phenyl)acrylamide], for which the IC50 worked out at 18.1 nM at ITK and 8.3 nM on BTK.

For the compound `C=CC(=O)Nc1cccc(-c2cc(CN3CCN(C(C)=O)CC3)cc(Nc3ncc(C)s3)n2)c1` [Compound 60, N-(3-(4-((4-acetylpiperazin-1-yl)methyl)-6-(5-methylthiazol-2-ylamino)pyridin-2-yl)phenyl)acrylamide], the values for the IC50 at ITK and at BTK were 2.2 nM and 1.9 nM, respectively.

With `C=CC(=O)Nc1cccc(-c2cc(CN3CCN(C(=O)CC)CC3)cc(Nc3ncc(C)s3)n2)c1` [Compound 61, N (3(6(5methylthiazol-2-ylamino)-4-((4-propionylpiperazin-1-yl)methyl)pyridin-2-yl)phenyl)acrylamide], the IC50 at ITK was 13.5 nM; at BTK, 9.5 nM.

`C=CC(=O)Nc1cccc(-c2cc(CN3CCN(C(=O)C4CC4)CC3)cc(Nc3ncc(C)s3)n2)c1` [Compound 63, N (3(4((4-(cyclopropanecarbonyl)piperazin-1-yl)methyl)-6-(5-methylthiazol-2-ylamino)pyridin-2-yl)phenyl)acrylamide]: the IC50 was found to be 9 nM on ITK and 6.7 nM at BTK.

For `C=CC(=O)Nc1ccc(Cl)c(-c2cc(CN3CCOCC3)cc(Nc3ncc(C)s3)n2)c1` [Compound 64], the IC50 at ITK amounted to 15.7 nM; on BTK it was 18.1 nM.

As to `C=CC(=O)N(C)c1cccc(-c2cc(CN3CCOCC3)cc(Nc3ncc(C)s3)n2)c1` [Compound 65], the 50% inhibitory concentration (IC50) on ITK turned out to be 2.1 nM; at BTK, 1.9 nM.

Consider `C=CC(=O)N(CC)c1cccc(-c2cc(CN3CCOCC3)cc(Nc3ncc(C)s3)n2)c1` [Compound 66, N-ethyl-N-(3-(6-(5-methylthiazol-2-ylamino)-4-(morpholinomethyl)pyridin-2-yl)phenyl)acrylamide], for which the IC50 amounted to 3.7 nM at ITK and 1.3 nM on BTK.

Take `C=CC(=O)Nc1cccc(-c2cc(CN3CCOCC3)cc(NC(=O)NC)n2)c1` [Compound 67, N-(3-(6-(3-methylureido)-4-(morpholinomethyl)pyridin-2-yl)phenyl)acrylamide]: the IC50 was above 200 nM at ITK and 64.1 nM at BTK.

With `C=CC(=O)Nc1cccc(-c2cc(CN3CCOCC3)cc(NC(=O)CC)n2)c1` [Compound 68, N-(3-(4-(morpholinomethyl)-6-propionamidopyridin-2-yl)phenyl)acrylamide], the IC50 at ITK is above 1000 nM; at BTK it was above 400 nM.

Take `C=CC(=O)Nc1cccc(-c2cc(Cc3cccnc3)cc(Nc3cc(C)[nH]n3)n2)c1` [Compound 72, N-(3-(6-((5-methyl-1H-pyrazol-3-yl)amino)-4-(pyridin-3-ylmethyl)pyridin-2-yl)phenyl)acrylamide]: the half-maximal inhibitory concentration (IC50) stood at 8 nM on ITK and 3.3 nM at BTK.

On to `C=CC(=O)Nc1cccc(-c2cc(Cc3cccnc3)cc(Nc3ncc(C)s3)n2)c1` [Compound 73, N-(3-(6-((5-methylthiazol-2-yl)amino)-4-(pyridin-3-ylmethyl)pyridin-2-yl)phenyl)acrylamide], for which the IC50 came to 2.3 nM on ITK and 2.5 nM on BTK.
